# Measured values as given in ChEMBL document CHEMBL1145134, “Inclusion complexation and solubilization of paclitaxel by bridged bis(beta-cyclodextrin)s containing a tetraethylenepentaamino spacer” (2003).
# Test system: K562
# Assay: Antiproliferative activity of the paclitaxel-TPCD complex was tested against K562 erythroleukemia after 72 hr at a concentration of 1E-6 mg/mL using MTT cytotoxicity assay
# Format: functional, Homo sapiens
compound,measurement,value
CC(=O)O[C@H]1C(=O)[C@@]2(C)[C@H]([C@H](OC(=O)c3ccccc3)[C@]3(O)C[C@H](OC(=O)[C@H](O)[C@@H](NC(=O)c4ccccc4)c4ccccc4)C(C)=C1C3(C)C)[C@]1(OC(C)=O)CO[C@@H]1C[C@@H]2O [PACLITAXEL],Activity,57.7%
